# According to US6992079B2, “Substituted 11-phenyl-dibenzazepine compounds useful for the treatment or prevention of diseases characterized by abnormal cell proliferation” (President Fellows of Harvard College, priority 1997, dated 2006):
# Where two headings read alike, the source gives them in different places.
# Columns and labels:
# Type in all cases: cell-based
# [1] = tested on: HCT-15; experiment: In-Vitro Testing SRB panel: Colon Cancer; settings: HCT-15
# [2] = tested on: MDA-MB-231/ATCC; experiment: In-Vitro Testing SRB panel: Breast Cancer; settings: MDA-MB-231/ATCC
# [3] = tested on: MOLT-4; experiment: In-Vitro Testing SRB panel: Leukemia; settings: MOLT-4
# [4] = tested on: RL-60 (TS); experiment: In-Vitro Testing SRB panel: Leukemia
# [5] = tested on: 786-0; experiment: In-Vitro Testing SRB panel: Renal Cancer; settings: 786-0
# [6] = tested on: MDA-MB-23; experiment: SRB antiproliferative assay; settings: Homo sapiens; MDA-MB-23 (Breast); SRB; 5% FCS/5 day incubation; read-out: IC50
# Source text: (§1) The cells were passaged using Trypsin (Gibco).
# [7] = tested on: MMRU; experiment: SRB antiproliferative assay; settings: Homo sapiens, MMRU (Melanoma), 5% FCS/5 day incubation
# Source text: as §1
# [8] = tested on: BT-549; experiment: In-Vitro Testing SRB panel: Breast Cancer; settings: BT-549
# [9] = tested on: HT29; experiment: In-Vitro Testing SRB panel: Colon Cancer
# [10] = tested on: OVCAR-4; experiment: In-Vitro Testing SRB panel: Ovarian Cancer; settings: OVCAR-4
# [11] = tested on: SK-MEL-2; experiment: In-Vitro Testing SRB panel: Melanoma; settings: SK-MEL-2
# [12] = tested on: DU-145; experiment: In-Vitro Testing SRB panel: Prostate Cancer; settings: DU-145
# [13] = tested on: M14; experiment: In-Vitro Testing SRB panel: Melanoma; settings: M14
# [14] = tested on: T-47D; experiment: In-Vitro Testing SRB panel: Breast Cancer
# [15] = tested on: KM12; experiment: In-Vitro Testing SRB panel: Colon Cancer; settings: KM12
# [16] = tested on: HCT-116; experiment: In-Vitro Testing SRB panel: Colon Cancer; settings: HCT-116
# [17] = tested on: OVCAR-5; experiment: In-Vitro Testing SRB panel: Ovarian Cancer; settings: OVCAR-5
# [18] = tested on: NCI-H23; settings: NCI-H23
# [19] = Homo sapiens, read-out: LC50 (the source's name)
compound,measurement,setting,value
COc1cccc2c1C(c1ccccc1Cl)c1cc(Cl)ccc1N(C(=O)c1ccc([N+](=O)[O-])cc1)C2 (stereo not drawn) [Compound 31],TGI,[1],>1.00E−04 Molar
same,Percent Growth,[1]; log10 conc -4 Molar,15%
same,Percent Growth,[1]; log10 conc -5 Molar,20%
same,Percent Growth,[1]; log10 conc -6 Molar,34%
same,Percent Growth,[1]; log10 conc -7 Molar,79%
same,Percent Growth,[1]; log10 conc -8 Molar,96%
same,GI50,[1]; Homo sapiens,444 nM
same,CC50,[1]; [19],> 100000 nM
same,CC50,[2]; [19],> 100000 nM
same,TGI,[2],>1.00E−04 Molar
same,Percent Growth,[2]; log10 conc -4 Molar,56%
same,Percent Growth,[2]; log10 conc -5 Molar,49%
same,Percent Growth,[2]; log10 conc -6 Molar,38%
same,Percent Growth,[2]; log10 conc -7 Molar,50%
same,Percent Growth,[2]; log10 conc -8 Molar,90%
same,GI50,[3]; Homo sapiens,336 nM
same,CC50,[3]; [19],> 100000 nM
same,TGI,[3],>1.00E−04 Molar
same,Percent Growth,[3]; log10 conc -4 Molar,6%
same,Percent Growth,[3]; log10 conc -5 Molar,14%
same,Percent Growth,[3]; log10 conc -6 Molar,24%
same,Percent Growth,[3]; log10 conc -7 Molar,79%
same,Percent Growth,[3]; log10 conc -8 Molar,95%
same,GI50,[4]; Homo sapiens,512 nM
same,CC50,"[4]; Homo sapiens, RL-60 (TB), read-out: LC50 (the source's name)",> 100000 nM
same,TGI,[4]; RL-60 (TB),1.28E−05 Molar
same,Percent Growth,"[4]; RL-60 (TB), log10 conc -4 Molar",−19%
same,Percent Growth,"[4]; RL-60 (TB), log10 conc -5 Molar",3%
same,Percent Growth,"[4]; RL-60 (TB), log10 conc -6 Molar",39%
same,Percent Growth,"[4]; RL-60 (TB), log10 conc -7 Molar",77%
same,Percent Growth,"[4]; RL-60 (TB), log10 conc -8 Molar",81%
same,TGI,[5],>1.00E−04 Molar
same,Percent Growth,[5]; log10 conc -4 Molar,14%
same,Percent Growth,[5]; log10 conc -5 Molar,26%
same,Percent Growth,[5]; log10 conc -6 Molar,54%
same,Percent Growth,[5]; log10 conc -7 Molar,91%
same,Percent Growth,[5]; log10 conc -8 Molar,95%
same,GI50,[5]; Homo sapiens,1350 nM
same,CC50,[5]; [19],> 100000 nM
same,IC50,[6],400 nM
same,IC50,[7],200 nM
same,TGI,[8],>1.00E−04 Molar
same,Percent Growth,[8]; log10 conc -4 Molar,11%
same,Percent Growth,[8]; log10 conc -5 Molar,43%
same,Percent Growth,[8]; log10 conc -6 Molar,59%
same,Percent Growth,[8]; log10 conc -7 Molar,94%
same,Percent Growth,[8]; log10 conc -8 Molar,92%
same,GI50,[8]; Homo sapiens,3830 nM
same,CC50,[8]; [19],> 100000 nM
same,TGI,[9]; HI29,>1.00E−04 Molar
same,Percent Growth,"[9]; HI29, log10 conc -4 Molar",16%
same,Percent Growth,"[9]; HI29, log10 conc -5 Molar",26%
same,Percent Growth,"[9]; HI29, log10 conc -6 Molar",47%
same,Percent Growth,"[9]; HI29, log10 conc -7 Molar",91%
same,Percent Growth,"[9]; HI29, log10 conc -8 Molar",97%
same,GI50,"[9]; Homo sapiens, HT-29",866 nM
same,CC50,"[9]; Homo sapiens, HT-29, HI29, read-out: LC50 (the source's name)",> 100000 nM
same,GI50,[10]; Homo sapiens,1830 nM
same,CC50,[10]; [19],> 100000 nM
same,TGI,[10],8.34E−05 Molar
same,Percent Growth,[10]; log10 conc -4 Molar,−1%
same,Percent Growth,[10]; log10 conc -5 Molar,16%
same,Percent Growth,[10]; log10 conc -6 Molar,62%
same,Percent Growth,[10]; log10 conc -7 Molar,83%
same,Percent Growth,[10]; log10 conc -8 Molar,91%
same,GI50,[11]; Homo sapiens,79300 nM
same,CC50,[11]; [19],> 100000 nM
same,TGI,[11],>1.00E−04 Molar
same,Percent Growth,[11]; log10 conc -4 Molar,47%
same,Percent Growth,[11]; log10 conc -5 Molar,78%
same,Percent Growth,[11]; log10 conc -6 Molar,102%
same,Percent Growth,[11]; log10 conc -7 Molar,99%
same,Percent Growth,[11]; log10 conc -8 Molar,101%
same,TGI,[12],>1.00E−04 Molar
same,Percent Growth,[12]; log10 conc -4 Molar,26%
same,Percent Growth,[12]; log10 conc -5 Molar,43%
same,Percent Growth,[12]; log10 conc -6 Molar,84%
same,Percent Growth,[12]; log10 conc -7 Molar,105%
same,Percent Growth,[12]; log10 conc -8 Molar,105%
same,GI50,[12]; Homo sapiens,6840 nM
same,CC50,[12]; [19],> 100000 nM
same,GI50,[13]; Homo sapiens,1220 nM
same,CC50,[13]; [19],> 100000 nM
same,TGI,[13],>1.00E−04 Molar
same,Percent Growth,[13]; log10 conc -4 Molar,21%
same,Percent Growth,[13]; log10 conc -5 Molar,30%
same,Percent Growth,[13]; log10 conc -6 Molar,52%
same,Percent Growth,[13]; log10 conc -7 Molar,93%
same,Percent Growth,[13]; log10 conc -8 Molar,92%
same,GI50,"[14]; Homo sapiens, T47D",2970 nM
same,CC50,"[14]; Homo sapiens, T47D, T-47D, read-out: LC50 (the source's name)",> 100000 nM
same,TGI,[14]; T-47D,>1.00E−04 Molar
same,Percent Growth,"[14]; T-47D, log10 conc -4 Molar",27%
same,Percent Growth,"[14]; T-47D, log10 conc -5 Molar",34%
same,Percent Growth,"[14]; T-47D, log10 conc -6 Molar",65%
same,Percent Growth,"[14]; T-47D, log10 conc -7 Molar",90%
same,Percent Growth,"[14]; T-47D, log10 conc -8 Molar",92%
same,GI50,[15]; Homo sapiens,519 nM
same,CC50,[15]; [19],> 100000 nM
same,TGI,[15],>1.00E−04 Molar
same,Percent Growth,[15]; log10 conc -4 Molar,20%
same,Percent Growth,[15]; log10 conc -5 Molar,32%
same,Percent Growth,[15]; log10 conc -6 Molar,38%
same,Percent Growth,[15]; log10 conc -7 Molar,80%
same,Percent Growth,[15]; log10 conc -8 Molar,99%
same,TGI,[16],1.00E−04 Molar
same,Percent Growth,[16]; log10 conc -4 Molar,12%
same,Percent Growth,[16]; log10 conc -5 Molar,17%
same,Percent Growth,[16]; log10 conc -6 Molar,32%
same,Percent Growth,[16]; log10 conc -7 Molar,92%
same,Percent Growth,[16]; log10 conc -8 Molar,100%
same,GI50,[16]; Homo sapiens,502 nM
same,CC50,[16]; [19],> 100000 nM
same,GI50,[17]; Homo sapiens,91700 nM
same,CC50,[17]; [19],> 100000 nM
same,TGI,[17],>1.00E−04 Molar
same,Percent Growth,[17]; log10 conc -4 Molar,49%
same,Percent Growth,[17]; log10 conc -5 Molar,70%
same,Percent Growth,[17]; log10 conc -6 Molar,82%
same,Percent Growth,[17]; log10 conc -7 Molar,102%
same,Percent Growth,[17]; log10 conc -8 Molar,101%
same,GI50,[18]; Homo sapiens,2650 nM
same,CC50,[18]; [19],> 100000 nM
same,TGI,[18],>1.00E−04 Molar
same,Percent Growth,[18]; log10 conc -4 Molar,19%
same,Percent Growth,[18]; log10 conc -5 Molar,33%
same,Percent Growth,[18]; log10 conc -6 Molar,62%
same,Percent Growth,[18]; log10 conc -7 Molar,92%
same,Percent Growth,[18]; log10 conc -8 Molar,96%
